Measured values from patent US10450341B2, “Cyclic di-nucleotides as modulators of STING” (GlaxoSmithKline Intellectual Property Development Limited, priority 2014, dated 2019).

Biological target: STING (Homo sapiens, UniProt Q86WV6)
Test: STING binding assay similar to that described by Li et al

Sequence of STING (Q86WV6 whole entry H232R, species assumed): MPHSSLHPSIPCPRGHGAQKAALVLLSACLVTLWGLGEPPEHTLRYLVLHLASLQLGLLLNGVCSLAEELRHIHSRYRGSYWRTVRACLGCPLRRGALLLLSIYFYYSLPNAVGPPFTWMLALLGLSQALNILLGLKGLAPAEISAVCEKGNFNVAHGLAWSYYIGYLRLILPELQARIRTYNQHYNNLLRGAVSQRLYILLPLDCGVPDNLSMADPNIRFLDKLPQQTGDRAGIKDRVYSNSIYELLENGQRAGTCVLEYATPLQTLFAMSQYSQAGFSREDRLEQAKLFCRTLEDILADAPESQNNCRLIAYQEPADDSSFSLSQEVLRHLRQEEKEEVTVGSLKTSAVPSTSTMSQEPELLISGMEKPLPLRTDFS

- IC50: < 100 µM
Structure (SMILES): Nc1nc2c(ncn2[C@@H]2C[C@@H]3COP(=O)(O)O[C@H]4[C@@H](F)[C@H](n5cnc6c(N)ncnc65)O[C@@H]4COP(=O)(O)O[C@@H]2[C@@H]3O)c(=O)[nH]1 [Example 4, (1S,6R,8R,9R,10R,15R,17R,18R)-17-(2-Amino-6-oxo-6,9-dihydro-1H-purin-9-yl)-8-(6-amino-9H-purin-9-yl)-9-fluoro-3,12,18-trihydroxy-2,4,7,11,13-pentaoxa-3λ^5,12λ^5-diphosphatricyclo[13.2.1.0^6,10]octadecane-3,12-dione]
